# Experimental data: ChEMBL document CHEMBL1143737, “Synthesis and biological evaluation of conformationally constrained analogues of the antitubercular agent ethambutol” (2007)
# System: Mycobacterium tuberculosis
# Assay: Antimycobacterial activity against Mycobacterium tuberculosis H37Rv after 6 days by colorimetric microassay
# Format: functional
# Details: 144 h
smiles,measurement,value
CC[C@@H](CO)NCCN[C@@H](CC)CO [ETHAMBUTOL],MIC,2 µg/mL
